Laboratory results published in patent publication US11083798B2, “Conjugate including peptide molecule capable of self-assembly in cell organelle and pharmaceutical composition for preventing or treating cancer including conjugate” (UNIST (ULSAN NATIONAL INSTITUTE OF SCIENCE AND TECHNOLOGY), priority 2016, dated 2021).

What was measured:
[1] = critical aggregation concentration (CAC) by pyrene excitation method; assay type: physicochemical; settings: pyrene excitation spectrum, I344/I339
Experimental: In order to verify whether intracellular self-assembly of the Mito-FF according to the present disclosure can occur or not, the CAC of the Mito-FF was measured as follows.
Intensities of emission at 344 nanometers (nm) and 339 nm in a pyrene excitation spectrum differ according to whether pyrene molecules are present as unaggregated individual molecules or as aggregated molecules. The intensities at 344 nm and 339 nm in the excitation spectrum were measured, and the ratio of an intensity in the excitation spectrum at 344 nm to an intensity in the excitation spectrum at 339 nm was calculated. Based on the standard curve shown in FIG. 4, the CAC for Mito-FF was determined.

[2] = self-assembled morphology and size by electron microscopy (TEM); assay type: physicochemical; settings: PBS (10 mM) and water
[3] = system: HeLa cells; assay: mitochondrial membrane potential depolarization with TMRM; assay type: cell-based, human; settings: HeLa cells incubated with TMRM and peptide
Source text: Under normal conditions, the inner membrane of mitochondria is in an electrochemically polarized state with a higher concentration of H^+ in the inner membrane space. The electrochemical gradient across the membrane causes H^+ to flow to the inner membrane of mitochondria and this process is coupled with production of adenosine triphosphate (ATP). The external materials which may uncouple this process cause the flow of H^+ to be independent of ATP production. This condition is referred as mitochondrial depolarization, which serves as a preliminary indication of mitochondrial dysfunction.
To examine the effect of Mito-FF on the mitochondrial membrane potential, HeLa cells were incubated with TMRM and Mito-FF. The fluorescence emission from the TMRM was monitored at times lapses of 1 hour, 3 hours, and 6 hours. Red fluorescence of TMRM appears when a mitochondrial membrane is completely polarized, whereas depolarization of a mitochondrial membrane causes disappearance of TMRM red fluorescence.
(§1) TEM images of Mito-VV and Mito-FxFx were obtained by observation in the same manner as in Example 3.

[4] = system: HeLa cells; assay: ROS generation within mitochondria with Mito SOX Red; assay type: cell-based, human; settings: 6 hours of incubation with HeLa cells
Source text: The mitochondrial dysfunction may result in excessive production of reactive oxygen species (ROS). To confirm the oxidative stress induced by Mito-FF, generation of ROS within mitochondria was monitored using Mito SOX Red.

[5] = system: HeLa cells; assay: ROS generation within the cell with dihydroethidium (DHE); assay type: cell-based, human
Source text: The mitochondrial stress may eventually lead to the whole-cell stress. […] DHE dye may intercalate with nuclear DNA and oxidizes to ethidium in the presence of ROS, which may show red fluorescence.
as §1

[6] = system: HeLa cells; assay: TEM image analysis of mitochondrial dysfunction in treated cells; assay type: cell-based, human; settings: 20 μM, 3 hours
Experimental: To visualize the mitochondrial dysfunction induced by Mito-FF, a TEM image analysis was conducted with HeLa cells treated with Mito-FF of a concentration of 20 μM for 3 hours in the same manner as in Example 3.

[7] = system: HEK 293T normal cell lines; assay: cell viability of normal cell line, Alamar Blue assay; assay type: cell-based; settings: 24 hours of treatment
Experimental: (§2) In order to analyze cell cytotoxicity, the cancer cells were incubated in an incubator including a DMEM medium (available from Gibco) containing 10% of FBS, 1% of penicillin/streptomycin (available from Life Technologies) at a temperature of 37° C. Cell viability thereof was measured 24 hours after cell incubation, by following the protocol of the manufacturer of Alamar Blue assay (available from Thermo Fisher Scientific).
In order to confirm whether apoptosis occurs or not by treatment with Mito-peptides, the cell viability of HEK 293T normal cell lines treated with Mito-FF, Mito-FxFx, Mito-VV, or Mito-GG was measured in the same manner as described above.

[8] = system: HeLa cells; assay: FITC annexin/PI staining assay, confocal microscopy; assay type: cell-based, human; settings: 10 μM, Annexin V positive, PI negative
Experimental: Mitochondria play a vital role in the initiation of an intrinsic apoptosis cascade. It was anticipated that a Mito-peptide localized in a mitochondrion may self-assemble, thereby causing stress in the mitochondrion and inducing apoptotic mechanisms. To confirm this prediction experimentally, FITC annexin/PI staining assay was performed.
For the FIIC annexin/PI staining assay, HeLa cells were incubated in an incubator including a DMEM medium (available from Gibco) containing 10% of FBS and 1% of penicillin/streptomycin (available from Life Technologies) at a temperature of 37° C. 10 μM of each peptide was incubated for 1, 4, 6, 8, or 10 hours. Following the protocol of the manufacturer, the cells were incubated for 15 minutes at room temperature in the presence of 100 μL of annexin-binding buffer solution, 5 μL of Alexa Fluor 488-conjugated annexin V (V13241 available from Life Technologies), and 1 μL of a 100 μg/mL PI working solution.

[9] = system: HeLa cells; assay: flow cytometric analysis (FACS) with annexin V/PI staining; assay type: cell-based, human; settings: 10 μM
Experimental: For the quantitative analysis of apoptosis, flow cytometric analysis (FACS) was conducted over time with FI-TC annexin V/PI staining assay by using FACSCalibur (available from BD Bioscience), following the protocol of the manufacturer.
In detail, HeLa cells treated with 10 μM of Mito-FF were incubated for 4 hours or 8 hours. Then, FACS analysis was performed thereon.

[10] = liposomal leakage assay (calcein release)
Experimental: To confirm this expectation, a liposomal leakage assay was conducted.
The release of a self-quenching dye such as calcine from liposome is commonly used to test integrity of lipid bilayers. […] Different concentrations of Mito-FF were added to a vesicle-containing solution, and leakage of encapsulated calcein from the vesicle was monitored.

[11] = system: HeLa, MDA-MB-486, MCF10, PC3, SCC7, HEK293T, NIH-3T3; assay: cell cytotoxicity, Alamar Blue assay, variety of cell lines; assay type: cell-based; settings: 24 hours, FIG. 33, read-out: IC50 (cell viability)
Experimental: After the confirmation of the intra-mitochondrial assembly of peptide amphiphile, the toxicity of Mito-peptides toward a variety of cells was analyzed, the cells including cancer cell lines such as HeLa (ATCC, cervical cancer), MDA-MB-486 (ATCC) (mammary cancer) MCF10 (breast cancer), PC3 (ATCC, prostate cancer), SCC7 (ATCC, skin cancer), HEK293T (ATCC), and NIH-3T3 (ATCC).
as §2

[12] = system: HeLa cells; settings: 24 hours, FIG. 32

## NC(=O)[C@H](CCCCNCCCCC[P+](c1ccccc1)(c1ccccc1)c1ccccc1)NC(=O)[C@H](Cc1ccccc1)NC(=O)[C@H](Cc1ccccc1)NC(=O)CCCc1ccc2ccc3cccc4ccc1c2c34 [Mito-FF]
[1]
  critical aggregation concentration (CAC): 60 µM
[2]
  average length of nanofibers: 500 nm
  average width of individual fibers: 10 nm
[3]
  time until red fluorescence of TMRM disappeared (membrane depolarization): ≤ 6 h
[4]
  ROS generation inside mitochondria (Mito SOX Red): ROS was generated inside the mitochondria
[5]
  ROS generation within the cell (DHE): significant ROS was generated
[6]
  state of mitochondrion in TEM image: severely damaged
[7]
  toxicity against normal cells: innocuous
[8]
  time until cells entered an early apoptotic stage: ≤ 6 h
[9]
  time at which late apoptotic stage started: > 10 h
[9]; within 2 hours
  total population of the cells that entered an early apoptotic stage: about 81.2%
[10]; concentration below the CAC
  dye leakage at a concentration below the CAC: did not induce any dye leakage
[10]; within 24 hours
  leakage of calcein / dye release from liposome: 100%

## NC(=O)[C@H](CCCCNCCCCC[P+](c1ccccc1)(c1ccccc1)c1ccccc1)NC(=O)[C@H](CC1CCCCC1)NC(=O)[C@H](CC1CCCCC1)NC(=O)CCCc1ccc2ccc3cccc4ccc1c2c34 [Mito-FxFx]
[5]
  ROS generation within the cell (DHE): ROS generation
[11]
  IC50: 10 µM

## CC(C)[C@H](NC(=O)CCCc1ccc2ccc3cccc4ccc1c2c34)C(=O)N[C@H](C(=O)N[C@@H](CCCCNCCCCC[P+](c1ccccc1)(c1ccccc1)c1ccccc1)C(N)=O)C(C)C [Mito-VV]
[5]
  ROS generation within the cell (DHE): ROS generation
[11]
  IC50: 10 µM

## pyrene-FFKFxrFxr
[12]
  toxicity in HeLa cells: significant toxicity
